Our source for the Activity values is ChEMBL document CHEMBL4334471, “Discovery of 1,8-disubstituted-[1,2,3]triazolo[4,5-c]quinoline derivatives as a new class of Hippo signaling pathway inhibitors” (Bioorg Med Chem Lett, 2019).

Assay [1] deals with Activin receptor type-1-like (Homo sapiens) (UniProt P37023). In words: Inhibition of recombinant human ALK1 (142 to end residues) assessed as residual activity at 10 uM using casein as substrate incubated for 40 mins in presence of [gamma-33ATP] by scintillation counting based radiometry assay relative to control.
Assay [2] deals with Calcium/calmodulin-dependent protein kinase type IV (Homo sapiens) (UniProt Q16566). In words: Inhibition of recombinant full length human CaMK4 assessed as residual activity at 10 uM using […] incubated for 40 mins in presence of [gamma-33ATP] by scintillation counting based radiometry assay relative to control.
In assay [3] the target is Cyclin-dependent kinase-like 4 (Homo sapiens) (UniProt Q5MAI5). In words: Inhibition of recombinant full length human CDKL4 assessed as residual activity at 10 uM in presence of [gamma-33ATP] by scintillation counting based radiometry assay relative to control.
Assay [4] has as its system Casein kinase I isoform gamma-3 (Homo sapiens), Q9Y6M4 [UNDEFINED MUTATION]. In words: Inhibition of recombinant human CK1gamma3 K91E/R174G/E302D mutant (1 to 330 residues) assessed as residual activity at 10 uM using KRRRALS(p)VASLPGL as substrate incubated for 40 mins in presence of [gamma-33ATP] by scintillation counting based radiometry assay relative to control.
Assay [5] has as its target Serine/threonine-protein kinase DCLK3 (Homo sapiens) (UniProt Q9C098). In words: Inhibition of recombinant human DCAMKL3 (345 to end residues) assessed as residual activity at 10 uM using KKLNRTLSFAEPG as substrate at 40 mins in presence of [gamma-33ATP] by scintillation counting based radiometry assay relative to control.
The subject of assay [6] is Epidermal growth factor receptor (Homo sapiens), P00533 [L858R,T790M]. In words: Inhibition of recombinant human EGFR T790M/L858R mutant (696 to end residues) assessed as residual activity at 10 uM using poly(Glu, Tyr) 4:1 as substrate at 40 mins in presence of [gamma-33ATP] by scintillation counting based radiometry assay relative to control.
The target in assay [7] is Ephrin type-A receptor 2 (Homo sapiens) (UniProt P29317). In words: Inhibition of recombinant human EphA2 (596 to 900 residues) assessed as residual activity at 10 uM using poly(Glu, Tyr) 4:1 as substrate at 40 mins in presence of [gamma-33ATP] by scintillation counting based radiometry assay relative to control.
For assay [8], the species on record is Homo sapiens. In words: Inhibition of recombinant human EphB2 A848S/K918E mutant (560 to end residues) assessed as residual activity at 10 uM using KTFCGTPEYLAPEVRREPRILSEEEQEMFRDFDYIADWC as substrate at 40 mins in presence of [gamma-33ATP] by scintillation counting based radiometry assay relative to control.
Assay [9] concerns the target Receptor tyrosine-protein kinase erbB-4 (Homo sapiens) (UniProt Q15303). In words: Inhibition of recombinant human ERBB4 (706 to 991 residues) assessed as residual activity at 10 uM using poly(Glu, Tyr) 4:1 as substrate at 40 mins in presence of [gamma-33ATP] by scintillation counting based radiometry assay relative to control.
The target of assay [10] is Insulin-like growth factor 1 receptor (Homo sapiens) (UniProt P08069). In words: Inhibition of human IGF1R activated (959 to end residues) assessed as residual activity at 10 uM using KKKSPGEYVNIEFG as substrate after 40 mins by [gamma-33ATP] radiometric assay relative to control.
Assay [11] concerns the target Serine/threonine-protein kinase MAK (Homo sapiens) (UniProt P20794). In words: Inhibition of recombinant human MAK assessed as residual activity at 10 uM using RRRFRPASPLRGPPK as substrate after 120 mins in presence of [gamma-33ATP] by scintillation counting based radiometry assay relative to control.
The subject of assay [12] is Hepatocyte growth factor receptor (Homo sapiens), P08581 [M1250T]. In words: Inhibition of recombinant human MET A1209G/V1290L/M1268T mutant (974 to end residues) assessed as residual activity at 10 uM using KKKGQEEEYVFIE as substrate incubated for 40 mins in presence of [gamma-33ATP by scintillation counting based radiometry assay relative to control.
Assay [13] deals with Hepatocyte growth factor receptor (Homo sapiens), P08581 [Y1230D]. In words: Inhibition of recombinant human MET A1209G/V1290L/Y1248D mutant (974 to end residues) assessed as residual activity at 10 uM using KKKGQEEEYVFIE as substrate incubated for 40 mins in presence of [gamma-33ATP by scintillation counting based radiometry assay relative to control.
Assay [14] addresses cAMP-dependent protein kinase catalytic subunit alpha (Homo sapiens) (UniProt P17612). In words: Inhibition of recombinant human PKA assessed as residual activity at 10 uM relative to control.
Assay [15] has as its system Mitogen-activated protein kinase 14 (Homo sapiens), Q16539 [T106M]. In words: Inhibition of recombinant human full length SAPK2a T106M mutant assessed as residual activity at 10 uM using myelin basic protein as substrate incubated for 40 mins in presence of [gamma33P]ATP by scintillation counting based radiometry assay relative to control.
For assay [16], the target named is Serine/threonine-protein kinase PLK2 (Homo sapiens) (UniProt Q9NYY3). In words: Inhibition of recombinant human SNK (65 to 409 residues) assessed as residual activity at 10 uM using casein as substrate incubated for 40 mins in presence of [gamma33P]ATP by scintillation counting based radiometry assay relative to control.
The target of assay [17] is Transcription initiation factor TFIID subunit 1-like (Homo sapiens) (UniProt Q8IZX4). In words: Inhibition of recombinant human TAF1L (1428 to end residues) assessed as residual activity at 10 uM using RRRFRPASPLRGPPK as substrate incubated for 40 mins in presence of [gamma33P]ATP by scintillation counting based radiometry assay relative to control.
Assay [18] addresses Tribbles homolog 2 (Homo sapiens) (UniProt Q92519). In words: Inhibition of recombinant full-length human TRB2 assessed as residual activity at 10 uM using RRRFRPASPLRGPPK as substrate incubated for 120 mins in presence of [gamma33P]ATP by scintillation counting based radiometry assay relative to control.
For assay [19], the species on record is Homo sapiens. In words: Inhibition of recombinant human full length PI3K p110/p65 assessed as residual activity at 10 uM using phosphatidylinositol-4, 5-bisphosphate as substrate incubated for 40 mins in presence of [gamma33P]ATP by scintillation counting based radiometry assay relative to control.

Casein kinase I isoform gamma-3 (Homo sapiens), Q9Y6M4 [UNDEFINED MUTATION], sequence (Q9Y6M4 whole entry, looked up, stated change not applied, the tested form may be a part, canonical isoform): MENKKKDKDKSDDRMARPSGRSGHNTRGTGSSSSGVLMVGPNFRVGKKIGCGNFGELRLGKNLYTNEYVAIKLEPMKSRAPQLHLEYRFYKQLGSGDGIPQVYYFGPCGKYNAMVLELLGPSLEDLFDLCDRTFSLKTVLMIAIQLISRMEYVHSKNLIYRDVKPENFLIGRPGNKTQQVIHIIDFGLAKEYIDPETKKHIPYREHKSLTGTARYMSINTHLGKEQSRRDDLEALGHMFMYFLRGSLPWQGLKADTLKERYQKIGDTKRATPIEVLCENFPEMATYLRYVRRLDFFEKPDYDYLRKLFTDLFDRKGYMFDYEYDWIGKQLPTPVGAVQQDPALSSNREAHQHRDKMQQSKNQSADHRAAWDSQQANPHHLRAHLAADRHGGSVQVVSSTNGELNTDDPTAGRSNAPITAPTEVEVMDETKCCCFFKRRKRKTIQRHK
Tribbles homolog 2 (Homo sapiens), sequence (Q92519 whole entry): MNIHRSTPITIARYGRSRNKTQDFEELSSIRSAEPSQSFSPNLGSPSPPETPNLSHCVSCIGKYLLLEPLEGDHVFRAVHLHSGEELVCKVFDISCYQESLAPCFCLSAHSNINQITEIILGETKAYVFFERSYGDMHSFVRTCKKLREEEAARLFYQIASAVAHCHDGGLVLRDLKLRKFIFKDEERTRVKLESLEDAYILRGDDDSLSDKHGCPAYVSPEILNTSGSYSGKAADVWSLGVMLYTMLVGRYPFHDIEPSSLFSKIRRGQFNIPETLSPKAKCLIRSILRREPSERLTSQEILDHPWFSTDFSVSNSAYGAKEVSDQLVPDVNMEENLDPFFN
Insulin-like growth factor 1 receptor (Homo sapiens), sequence (P08069 31-736 limits assumed): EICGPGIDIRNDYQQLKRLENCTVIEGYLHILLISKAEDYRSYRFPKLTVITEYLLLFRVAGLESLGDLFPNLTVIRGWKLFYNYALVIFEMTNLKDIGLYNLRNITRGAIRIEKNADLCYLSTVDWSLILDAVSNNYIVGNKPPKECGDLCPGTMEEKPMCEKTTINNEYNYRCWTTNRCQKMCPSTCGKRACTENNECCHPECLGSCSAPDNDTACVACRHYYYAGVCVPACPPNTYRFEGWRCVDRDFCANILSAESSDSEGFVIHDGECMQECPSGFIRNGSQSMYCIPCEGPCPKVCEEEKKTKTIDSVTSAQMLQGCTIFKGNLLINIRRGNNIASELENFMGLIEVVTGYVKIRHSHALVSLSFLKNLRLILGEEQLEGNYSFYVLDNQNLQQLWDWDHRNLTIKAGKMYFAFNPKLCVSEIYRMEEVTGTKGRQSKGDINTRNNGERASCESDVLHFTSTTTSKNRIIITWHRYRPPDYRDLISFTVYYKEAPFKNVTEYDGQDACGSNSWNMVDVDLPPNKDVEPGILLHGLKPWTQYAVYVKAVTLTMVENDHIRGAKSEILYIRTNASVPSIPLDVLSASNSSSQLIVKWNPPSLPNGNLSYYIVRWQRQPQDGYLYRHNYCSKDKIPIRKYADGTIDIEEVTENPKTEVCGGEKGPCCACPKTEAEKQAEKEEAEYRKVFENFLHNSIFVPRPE
Insulin-like growth factor 1 receptor (Homo sapiens), sequence (P08069 741-1367 limits assumed): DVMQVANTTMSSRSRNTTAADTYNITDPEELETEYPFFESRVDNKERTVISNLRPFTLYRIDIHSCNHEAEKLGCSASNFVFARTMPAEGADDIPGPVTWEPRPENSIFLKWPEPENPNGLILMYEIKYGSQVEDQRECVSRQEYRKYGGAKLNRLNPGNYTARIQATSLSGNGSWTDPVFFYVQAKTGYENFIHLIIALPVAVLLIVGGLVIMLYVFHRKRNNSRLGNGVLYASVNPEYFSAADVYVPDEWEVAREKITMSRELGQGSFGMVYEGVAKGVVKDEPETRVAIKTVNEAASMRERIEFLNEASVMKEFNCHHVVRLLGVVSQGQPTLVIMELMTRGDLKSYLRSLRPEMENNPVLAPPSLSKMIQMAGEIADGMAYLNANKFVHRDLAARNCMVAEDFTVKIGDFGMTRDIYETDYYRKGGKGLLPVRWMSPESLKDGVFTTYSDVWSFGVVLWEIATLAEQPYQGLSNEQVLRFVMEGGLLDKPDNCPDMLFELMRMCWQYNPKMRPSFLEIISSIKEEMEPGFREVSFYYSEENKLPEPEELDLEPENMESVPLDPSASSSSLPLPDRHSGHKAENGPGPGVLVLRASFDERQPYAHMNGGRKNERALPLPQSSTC
Cyclin-dependent kinase-like 4 (Homo sapiens), sequence (Q5MAI5 whole entry, the tested form may be a part, canonical isoform): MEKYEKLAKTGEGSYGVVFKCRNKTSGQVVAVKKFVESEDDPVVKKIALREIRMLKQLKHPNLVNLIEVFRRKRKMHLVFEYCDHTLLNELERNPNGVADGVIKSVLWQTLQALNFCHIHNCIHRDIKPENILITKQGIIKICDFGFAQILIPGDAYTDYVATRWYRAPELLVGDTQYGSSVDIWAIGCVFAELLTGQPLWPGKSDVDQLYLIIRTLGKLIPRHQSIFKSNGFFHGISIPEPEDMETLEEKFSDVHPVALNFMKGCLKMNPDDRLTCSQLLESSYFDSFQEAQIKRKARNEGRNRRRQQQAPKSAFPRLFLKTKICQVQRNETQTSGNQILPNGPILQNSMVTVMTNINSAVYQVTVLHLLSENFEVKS
Serine/threonine-protein kinase PLK2 (Homo sapiens), sequence (Q9NYY3 whole entry, looked up, the tested form may be a part): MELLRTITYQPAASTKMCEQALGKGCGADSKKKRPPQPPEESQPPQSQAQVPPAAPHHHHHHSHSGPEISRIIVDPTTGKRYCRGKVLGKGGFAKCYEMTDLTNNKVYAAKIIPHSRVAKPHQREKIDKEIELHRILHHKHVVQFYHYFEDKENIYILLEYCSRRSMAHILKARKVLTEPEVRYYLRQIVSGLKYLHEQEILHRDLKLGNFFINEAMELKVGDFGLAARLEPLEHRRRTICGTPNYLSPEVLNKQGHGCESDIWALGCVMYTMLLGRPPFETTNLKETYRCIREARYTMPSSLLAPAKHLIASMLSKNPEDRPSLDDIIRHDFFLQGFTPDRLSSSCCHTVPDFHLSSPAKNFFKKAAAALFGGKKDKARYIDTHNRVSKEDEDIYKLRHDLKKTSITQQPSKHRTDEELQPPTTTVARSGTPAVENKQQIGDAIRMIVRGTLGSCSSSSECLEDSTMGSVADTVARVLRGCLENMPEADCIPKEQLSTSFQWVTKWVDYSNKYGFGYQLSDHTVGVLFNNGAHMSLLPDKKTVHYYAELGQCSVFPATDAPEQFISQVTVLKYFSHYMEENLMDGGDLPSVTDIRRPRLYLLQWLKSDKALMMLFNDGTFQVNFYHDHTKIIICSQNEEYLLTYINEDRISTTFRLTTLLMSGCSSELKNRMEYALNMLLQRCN
Mitogen-activated protein kinase 14 (Homo sapiens), Q16539 [T106M], sequence (Q16539 whole entry T106M, the tested form may be a part): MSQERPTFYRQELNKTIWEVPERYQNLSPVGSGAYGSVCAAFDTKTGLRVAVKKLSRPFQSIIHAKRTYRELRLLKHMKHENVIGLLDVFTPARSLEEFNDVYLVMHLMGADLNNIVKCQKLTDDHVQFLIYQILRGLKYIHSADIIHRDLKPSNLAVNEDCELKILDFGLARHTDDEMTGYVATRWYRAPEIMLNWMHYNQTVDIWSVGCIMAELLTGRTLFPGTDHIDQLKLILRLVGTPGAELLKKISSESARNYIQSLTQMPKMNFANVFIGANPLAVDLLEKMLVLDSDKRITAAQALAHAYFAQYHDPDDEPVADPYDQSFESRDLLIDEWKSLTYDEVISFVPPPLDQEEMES
Ephrin type-A receptor 2 (Homo sapiens), sequence (P29317 whole entry, the tested form may be a part): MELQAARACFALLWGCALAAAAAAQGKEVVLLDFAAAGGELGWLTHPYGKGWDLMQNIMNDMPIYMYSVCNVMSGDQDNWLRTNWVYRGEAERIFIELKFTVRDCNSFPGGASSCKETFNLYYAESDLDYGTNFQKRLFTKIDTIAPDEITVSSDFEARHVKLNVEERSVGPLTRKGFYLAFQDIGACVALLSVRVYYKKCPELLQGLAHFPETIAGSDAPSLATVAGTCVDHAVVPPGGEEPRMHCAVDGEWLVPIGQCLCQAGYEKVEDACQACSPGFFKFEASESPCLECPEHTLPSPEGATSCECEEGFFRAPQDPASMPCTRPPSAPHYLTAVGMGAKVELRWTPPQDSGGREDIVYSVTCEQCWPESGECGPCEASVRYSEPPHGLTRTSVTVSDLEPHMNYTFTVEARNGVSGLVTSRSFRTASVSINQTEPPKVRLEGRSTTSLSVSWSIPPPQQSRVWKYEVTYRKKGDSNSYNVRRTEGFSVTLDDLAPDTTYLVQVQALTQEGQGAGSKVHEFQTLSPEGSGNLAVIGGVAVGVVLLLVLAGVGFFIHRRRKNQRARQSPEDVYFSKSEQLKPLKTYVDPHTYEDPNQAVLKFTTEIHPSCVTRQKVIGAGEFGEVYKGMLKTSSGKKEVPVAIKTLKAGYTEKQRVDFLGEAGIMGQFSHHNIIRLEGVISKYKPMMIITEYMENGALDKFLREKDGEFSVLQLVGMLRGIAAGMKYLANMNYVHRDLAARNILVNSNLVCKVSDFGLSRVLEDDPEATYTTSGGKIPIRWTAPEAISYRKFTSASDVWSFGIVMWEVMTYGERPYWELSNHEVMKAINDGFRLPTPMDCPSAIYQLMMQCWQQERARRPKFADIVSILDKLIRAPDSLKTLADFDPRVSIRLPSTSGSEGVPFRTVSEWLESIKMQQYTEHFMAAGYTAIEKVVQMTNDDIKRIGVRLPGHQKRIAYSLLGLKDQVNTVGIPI
Calcium/calmodulin-dependent protein kinase type IV (Homo sapiens), sequence (Q16566 whole entry): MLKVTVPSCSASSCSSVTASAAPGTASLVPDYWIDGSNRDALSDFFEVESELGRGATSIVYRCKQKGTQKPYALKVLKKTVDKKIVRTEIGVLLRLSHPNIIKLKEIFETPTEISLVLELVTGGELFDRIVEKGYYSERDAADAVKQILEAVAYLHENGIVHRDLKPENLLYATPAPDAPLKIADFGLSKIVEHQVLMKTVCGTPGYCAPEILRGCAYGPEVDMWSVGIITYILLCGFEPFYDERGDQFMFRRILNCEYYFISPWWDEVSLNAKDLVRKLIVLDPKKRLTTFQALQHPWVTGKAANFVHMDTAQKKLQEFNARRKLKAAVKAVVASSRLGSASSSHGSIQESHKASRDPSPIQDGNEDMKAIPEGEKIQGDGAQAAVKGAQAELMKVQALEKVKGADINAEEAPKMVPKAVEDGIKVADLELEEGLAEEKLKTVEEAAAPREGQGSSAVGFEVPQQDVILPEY

With `C[C@@H](c1ccccc1)n1nnc2cnc3ccc(-c4cnc5[nH]ccc5c4)cc3c21`, the Activity in assay [1] was found to be 78%; in [2], 39%; in [3], 96%; in assay [4] it was 45%; in assay [5], 66%; in [6], 57%. In addition, the Activity in [7] came to 68%; in the assay listed under Homo sapiens [8], 83%; in assay [9] it was 73%; in assay [10], 79%; in assay [11], 87%; in assay [12] it was 45%. The Activity was 70% in assay [13]; 82% in assay [14]; 97% in assay [15]; 90% in [16]; 85% in [17]; 86% in [18]. Also, the Activity in the assay listed under Homo sapiens [19] was determined as 3%.
